7 molecules from ChEMBL document CHEMBL4002642, “Design, synthesis and evaluation of antiproliferative activity of melanoma-targeted histone deacetylase inhibitors” (Bioorg Med Chem Lett, 2017) can be followed below.

The source made the active and inactive calls. The calls are words filed in the database; no cut-off is given here.

The target of experiment [1] is T1, Protein deacetylase HDAC6 (Homo sapiens, UniProt Q9UBN7).
T1 sequence (Q9UBN7 whole entry): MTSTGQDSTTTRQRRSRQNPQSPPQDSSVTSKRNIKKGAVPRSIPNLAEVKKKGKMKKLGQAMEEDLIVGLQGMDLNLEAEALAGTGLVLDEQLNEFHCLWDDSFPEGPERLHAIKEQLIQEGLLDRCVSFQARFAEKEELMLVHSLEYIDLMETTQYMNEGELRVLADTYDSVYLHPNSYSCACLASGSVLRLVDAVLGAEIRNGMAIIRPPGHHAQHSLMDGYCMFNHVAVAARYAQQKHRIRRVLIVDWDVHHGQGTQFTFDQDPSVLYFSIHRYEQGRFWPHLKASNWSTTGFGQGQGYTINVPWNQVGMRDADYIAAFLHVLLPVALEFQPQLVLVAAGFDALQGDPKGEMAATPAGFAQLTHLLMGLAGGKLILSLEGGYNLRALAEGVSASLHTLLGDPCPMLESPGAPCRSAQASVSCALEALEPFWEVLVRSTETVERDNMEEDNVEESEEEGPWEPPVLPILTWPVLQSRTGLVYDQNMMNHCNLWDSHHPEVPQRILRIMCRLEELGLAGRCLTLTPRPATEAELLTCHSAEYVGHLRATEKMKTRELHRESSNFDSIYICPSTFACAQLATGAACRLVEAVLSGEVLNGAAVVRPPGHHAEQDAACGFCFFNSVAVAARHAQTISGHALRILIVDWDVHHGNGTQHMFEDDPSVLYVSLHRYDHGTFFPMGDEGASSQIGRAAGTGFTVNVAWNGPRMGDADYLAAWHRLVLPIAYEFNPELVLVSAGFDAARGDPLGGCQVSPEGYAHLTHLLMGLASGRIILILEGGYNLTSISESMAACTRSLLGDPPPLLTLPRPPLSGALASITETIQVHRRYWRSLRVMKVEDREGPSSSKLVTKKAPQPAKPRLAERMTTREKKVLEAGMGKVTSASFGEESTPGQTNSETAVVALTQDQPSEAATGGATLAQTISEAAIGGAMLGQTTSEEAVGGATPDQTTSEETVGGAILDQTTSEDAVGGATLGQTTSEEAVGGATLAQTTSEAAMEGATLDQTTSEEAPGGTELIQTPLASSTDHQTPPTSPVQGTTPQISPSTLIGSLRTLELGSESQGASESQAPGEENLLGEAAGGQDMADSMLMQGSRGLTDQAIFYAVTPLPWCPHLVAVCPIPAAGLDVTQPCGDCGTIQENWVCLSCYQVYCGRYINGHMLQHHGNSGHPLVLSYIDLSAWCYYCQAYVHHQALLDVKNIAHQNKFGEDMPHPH
The experiment in a line: Inhibition of HDAC6 (unknown origin).

Experiment [2] deals with T2, Histone deacetylase 1 (Homo sapiens, UniProt Q13547). The experiment in a line: Inhibition of HDAC1 (unknown origin).
T2 sequence (Q13547 whole entry): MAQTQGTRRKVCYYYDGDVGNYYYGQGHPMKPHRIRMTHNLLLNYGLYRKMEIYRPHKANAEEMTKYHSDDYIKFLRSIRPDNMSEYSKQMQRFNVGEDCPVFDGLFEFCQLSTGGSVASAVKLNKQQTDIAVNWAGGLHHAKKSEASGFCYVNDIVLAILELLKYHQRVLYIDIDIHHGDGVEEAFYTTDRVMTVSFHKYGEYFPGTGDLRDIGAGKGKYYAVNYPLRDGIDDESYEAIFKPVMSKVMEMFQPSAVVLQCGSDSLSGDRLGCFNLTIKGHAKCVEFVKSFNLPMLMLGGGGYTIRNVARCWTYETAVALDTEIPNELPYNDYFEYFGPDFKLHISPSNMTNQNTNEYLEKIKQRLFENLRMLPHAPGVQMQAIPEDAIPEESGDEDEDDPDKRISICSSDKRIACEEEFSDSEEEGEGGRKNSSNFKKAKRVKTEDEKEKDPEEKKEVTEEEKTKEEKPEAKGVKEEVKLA
The test system of experiment [3] is B16-F10. The experiment in a line: Cytotoxicity against mouse B16F10 cells assessed as growth inhibition after 72 hrs by MTS assay. As to conditions: B16-F10, 72 h. In kind it is functional, cell-based.
The test system of a further experiment is A-375. The experiment in a line: Cytotoxicity against human A375 cells assessed as growth inhibition after 72 hrs by MTS assay. Type of experiment: functional, cell-based. The settings on record: A-375, 72 h. A general note: Formazan colour is commonly taken as a measure of viable cells.
For a further experiment, the system named is LNCaP. Put plainly: Cytotoxicity against human LNCAP cells assessed as growth inhibition after 72 hrs by MTS assay. In kind it is functional, cell-based.
Experiment [4] relates to B16-F10. Put plainly: Cytotoxicity against mouse B16F10 cells assessed as growth inhibition after 72 hrs in presence of verapamil by MTS assay. Type of experiment: functional, cell-based.
Experiment [5] has as its system B16-F10. The experiment in a line: Cytotoxicity against mouse B16F10 cells assessed as growth inhibition at 25 to 50 uM after 72 hrs by MTS assay. In kind it is functional, cell-based.
Experiment [6] has as its target T3, Protein deacetylase HDAC6 (Mus musculus) (UniProt Q9Z2V5).
T3 sequence (whole entry): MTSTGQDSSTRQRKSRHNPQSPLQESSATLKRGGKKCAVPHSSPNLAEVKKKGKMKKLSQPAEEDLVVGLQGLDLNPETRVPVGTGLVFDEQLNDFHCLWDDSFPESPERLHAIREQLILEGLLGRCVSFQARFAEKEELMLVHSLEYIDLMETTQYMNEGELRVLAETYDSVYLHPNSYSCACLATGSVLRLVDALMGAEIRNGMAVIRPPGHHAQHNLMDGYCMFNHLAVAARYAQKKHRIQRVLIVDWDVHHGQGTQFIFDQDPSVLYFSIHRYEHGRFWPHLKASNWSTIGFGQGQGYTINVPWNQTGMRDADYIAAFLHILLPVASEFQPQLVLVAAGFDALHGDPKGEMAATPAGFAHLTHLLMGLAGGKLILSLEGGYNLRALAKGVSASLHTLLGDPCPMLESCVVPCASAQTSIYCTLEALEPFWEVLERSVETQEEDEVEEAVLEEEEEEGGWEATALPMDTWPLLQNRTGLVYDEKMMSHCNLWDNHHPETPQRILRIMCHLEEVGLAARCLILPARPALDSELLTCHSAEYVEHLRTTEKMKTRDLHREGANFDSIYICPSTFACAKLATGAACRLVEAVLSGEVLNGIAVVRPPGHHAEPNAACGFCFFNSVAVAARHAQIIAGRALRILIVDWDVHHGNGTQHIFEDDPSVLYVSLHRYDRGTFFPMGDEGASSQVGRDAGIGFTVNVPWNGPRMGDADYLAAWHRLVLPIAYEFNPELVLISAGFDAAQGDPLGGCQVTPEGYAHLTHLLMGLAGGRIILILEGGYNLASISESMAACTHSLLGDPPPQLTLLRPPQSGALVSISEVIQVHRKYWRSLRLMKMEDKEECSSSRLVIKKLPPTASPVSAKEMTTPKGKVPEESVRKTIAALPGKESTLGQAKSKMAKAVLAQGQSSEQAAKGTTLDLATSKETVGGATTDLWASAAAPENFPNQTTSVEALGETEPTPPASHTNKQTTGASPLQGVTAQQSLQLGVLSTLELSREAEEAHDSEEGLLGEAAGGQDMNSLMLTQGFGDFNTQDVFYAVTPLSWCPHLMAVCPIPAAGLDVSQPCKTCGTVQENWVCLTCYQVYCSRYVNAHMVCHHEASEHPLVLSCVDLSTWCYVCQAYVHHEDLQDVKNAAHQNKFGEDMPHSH
The experiment in a line: Inhibition of HDAC6 in mouse B16F10 cells assessed as accumulation of acetylated tubulin at 5 to 50 uM after 24 hrs by Western blot analysis. In kind it is cell-based. In general terms: In western blotting, separated proteins are transferred to a membrane and probed.

In experiment [7] the target is T2, Histone deacetylase 1. The experiment in a line: Inhibition of HDAC1 (unknown origin) at 5 uM relative to control.
Experiment [8] addresses T4, Protein deacetylase HDAC6 (Homo sapiens) (UniProt Q9UBN7).
T4 sequence (whole entry): T1 sequence (Q9UBN7 whole entry)
The experiment in a line: Inhibition of HDAC6 (unknown origin) at 5 uM relative to control.

For experiment [9], the target named is T5, Histone deacetylase 8 (Homo sapiens) (UniProt Q9BY41).
T5 sequence (whole entry): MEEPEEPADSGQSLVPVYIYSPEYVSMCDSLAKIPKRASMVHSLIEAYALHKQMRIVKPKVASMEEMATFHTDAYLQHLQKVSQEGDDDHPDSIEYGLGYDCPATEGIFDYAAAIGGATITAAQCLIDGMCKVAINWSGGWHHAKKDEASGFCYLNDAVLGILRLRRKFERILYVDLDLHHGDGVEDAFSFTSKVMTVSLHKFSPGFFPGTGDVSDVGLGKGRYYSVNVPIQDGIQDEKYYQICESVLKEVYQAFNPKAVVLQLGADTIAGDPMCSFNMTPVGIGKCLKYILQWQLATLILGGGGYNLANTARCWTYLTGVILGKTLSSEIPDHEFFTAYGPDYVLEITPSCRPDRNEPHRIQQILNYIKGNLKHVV
Put plainly: Inhibition of HDAC8 (unknown origin) at 5 uM relative to control.

Experiment [10] concerns the target T3, Protein deacetylase HDAC6 (Mus musculus). The experiment in a line: Inhibition of HDAC6 in mouse B16F10 cells assessed as accumulation of acetylated tubulin after 24 hrs by Western blot analysis. In kind it is cell-based.
Experiment [11] shares this target. Put plainly: Inhibition of HDAC6 in mouse B16F10 cells assessed as accumulation of acetylated tubulin at 20 uM after 24 hrs by Western blot analysis. In kind it is cell-based.

On to `CCN(CC)CCNC(=O)c1ccc(-c2cn(CCCCCCC(=O)NO)nn2)cc1`, for which the IC50 came to 0.016 µM in [1]; 0.0038 µM against Histone deacetylase 1 [2]; 34.2 µM in the experiment on B16-F10 [3]; 23.6 µM in the experiment on A-375; 1.2 µM with LNCaP. Besides, the “growth inhibition (GI)” value with B16-F10 [4] is “inactive”. The “growth inhibition (GI)” value in the experiment with B16-F10 [5] is “Active”. Further, in experiment [6], the inhibition result was “Active”.

On to `CCN(CC)CCNC(=O)c1ccc(-c2cn(CCCCCC(=O)NO)nn2)cn1`, for which the IC50 in [1] is 0.17 µM; on Histone deacetylase 1 [2], 0.1 µM; in the experiment with B16-F10 [3], above 100 µM; in the experiment with A-375 it was above 100 µM; in the experiment with LNCaP it was 10.5 µM.

Turning to `CCN(CC)CCNC(=O)c1ccc(-c2cn(CCCCCCC(=O)NO)nn2)cn1`, the IC50 amounted to 0.034 µM in experiment [1]; 0.017 µM at Histone deacetylase 1 [2]; 55.7 µM in the experiment with B16-F10 [3]; 47.2 µM in the experiment with A-375; 1.5 µM in the experiment with LNCaP. Moreover, the “growth inhibition (GI)” value in the experiment on B16-F10 [4] was “inactive”.

Take `CCN(CC)CCNC(=O)c1ccc(C(=O)ONC(=O)CCCCCn2cc(-c3ccc4cc(OC)ccc4c3)nn2)cc1`: the IC50 in the experiment on B16-F10 [3] was 27.8 µM; in the experiment on A-375 it was 25.9 µM; with LNCaP, 6.46 µM. Also, the inhibition at Histone deacetylase 1 [7] was 100%; in experiment [8], 99%; in experiment [9], 52%; in experiment [10], “Dose-dependent effect”. Besides, the “growth inhibition (GI)” value in the experiment with B16-F10 [5] is “Active”.

On to `COc1ccc2cc(-c3cn(CCCCCC(=O)NO)nn3)ccc2c1`, for which the IC50 in the experiment with B16-F10 [3] amounted to 10.5 µM; in the experiment on A-375, 12.6 µM; in the experiment with LNCaP, 5.1 µM. Moreover, the inhibition result in experiment [11] is “Active”.

Regarding `CCN(CC)CCNC(=O)c1ccc(-c2cn(CCCCCCCC(=O)NO)nn2)cc1`, the IC50 in [1] is 0.027 µM; at Histone deacetylase 1 [2] it was 0.012 µM; in the experiment on B16-F10 [3] it was 75.9 µM; in the experiment with A-375, above 100 µM; in the experiment on LNCaP, 3 µM.

With `O=C(CCCCCCC(=O)Nc1ccccc1)NO`, the inhibition entry in [11] was “Active”.

For orientation: IC50 means the concentration needed to halve the response being measured. As usually defined, the inhibition is the drop in the measured response relative to a control, in per cent.
